Source: patent publication US12540161B2, “Linkers” (BicycleTx Limited, priority 2020, dated 2026)

Columns and labels:
[1] = Plasma stability analysis, mouse plasma; details: for half-life at 2 μM: plasma; for fold increase in half-life vs Cit-Val: 2 μM
Protocol: Pooled frozen plasma was thawed in a water bath at 37° C. Plasma was centrifuged at 4000 rpm for 5 min and the clots were removed if any. The pH will be adjusted to 7.4±0.1 if required. 1 mM stock solution was prepared with DMSO. Propantheline (positive control) was prepared by making a 100 μM working solution by diluting 5 μL of the stock solution (10 mM) with 495 μL ultra pure water. 100 μM working solutions of test compounds were made up by diluting 10 μL of the stock solution (1 mM) with 90 μL DMSO. 98 μL of blank plasma was spiked with 2 μL of dosing solution (100 μM) to achieve 2 μM of the final concentration in duplicate and samples were incubated at 37° C. in a water bath. […] An aliquot of supernatant (150 μL) was transferred from each well before submitting for LC-MS/MS analysis.
The % remaining test compound after incubation in plasma was calculated using following equation: Remaining=100×(PAR at appointed incubation time/PAR at T0 time)
where PAR is the peak area ratio of analyte versus internal standard (IS).
The half-life (T½) was calculated from a log linear plot of concentration versus time.

Cathepsin B = Cathepsin B (Homo sapiens, UniProt P07858); experiment: Cathepsin B (CatB) cleavage assay; format: biochemical; details: for % Parent remaining after incubation with CatB, 0 h / % Parent remaining after incubation with CatB, 1 h / % Parent remaining after incubation with CatB, 2 h / % Parent remaining after incubation with CatB, 4 h / % Parent remaining after incubation with CatB, 6 h / % Parent remaining after incubation with CatB, 24 h / half-life at 40 μM: BTCs; for half-life at 40 μM: read-out: CatB t1/2 (converted); for % Parent remaining after incubation with CatB, T = 1 h / % Parent remaining after incubation with CatB, T = 4 h / % Parent remaining after incubation with CatB, T = 24 h: norfloxacin linker compounds
Protocol: 15 μL of test compound solution (2 mM in DMSO) was added to the incubation plate in duplicate. 30 μL of Cathepsin B stock solution (16 μM) was pre-activated with 1500 μL activation buffer for 10 min at room temperature. The Cathepsin B solution was diluted in 13.17 mL water, then 735 μL activatived enzyme mixture was added to the incubation plate. The mixture was incubated at 37° C. in a waterbath. […] The samples were mixed and centrifuged at 4000 rpm for 20 min. 50 μL of supernatant was taken into a new plate containing 150 μL ultra-pure water and the samples mixed thoroughly before submitting to LC-MS/MS analysis.

in vivo = details: male, CD-1, mouse, plasma, intravenous
Protocol: Male CD-1 mice were dosed with each Bicycle Conjugate formulated in 25 mM histidine HCl, 10% sucrose pH 7 via tail vein injection. Serial bleeding (about 80 μL blood/time point) was performed via submadibular or saphenous vein at each time point. All blood samples were immediately transferred into prechilled microcentrifuge tubes containing 2 μL K2-EDTA (0.5M) as anti-coagulant and placed on wet ice. Blood samples were immediately processed for plasma by centrifugation at approximately 4° C., 3000 g. The precipitant including internal standard (350 μL) was immediately added into the 35 μL plasma sample, mixed well and centrifuged at 3220 g, 4° C. for 15 minutes. The supernatant was transferred into pre-labeled polypropylene microcentrifuge tubes, and then quick-frozen over dry ice. The samples were stored at 70° C. or below as needed until analysis. Supernatant samples were mixed with 50 μL water, vortexed well and centrifuged at 3220 g, 4° C. for 15 minutes. A sample of the supernatant was injected for LC-MS/MS analysis using an Acquity UPLC with AB Sciex 6500+ Triple Quad MS in positive ion mode to determine the concentrations of Bicycle Conjugate and released payload. Plasma concentration versus time data were analyzed by non-compartmental approaches using the Phoenix WinNonlin 6.3 software program. C0, Cl, Vdss, T1/2, AUC(0-inf), MRT(0-last), MRT(0-inf) nd graphs of plasma concentration versus time profile were reported.

in vitro [2] = details: rat, plasma, pH 7.4
Protocol: (§1) Pooled frozen plasma was thawed in a water bath at 37° C. Plasma was centrifuged at 4000 rpm for 5 min and the clots were removed if any. The pH will be adjusted to 7.4±0.1 if required. 1 mM stock solution was prepared with DMSO. Propantheline (positive control) was prepared by making a 100 μM working solution by diluting 5 μL of the stock solution (10 mM) with 495 μL ultra pure water. 100 μM working solutions of test compounds were made up by diluting 10 μL of the stock solution (1 mM) with 90 μL DMSO. 98 μL of blank plasma was spiked with 2 μL of dosing solution (100 μM) to achieve 2 μM of the final concentration in duplicate and samples were incubated at 37° C. in a water bath. At each time point (0, 1, 2, 4, 6 and 24 hr), 400 μL of 200 ng/mL tolbutamide and labetalol in 100% MeOH was added and mixed thoroughly to precipitate proteins. Sample plates were centrifuged at 4,000 rpm for 15 min. An aliquot of supernatant (150 μL) was transferred from each well before submitting for LC-MS/MS analysis.
(§2) The appointed incubation time points are T0 (0 hr), Tn (n=0, 1, 2, 4, 6, 24 hr). The half-life (T½) was calculated from a log linear plot of concentration versus time.
(§3) When the % remaining value at the maximal incubation time, which was 24 hr in this study, was higher than 75%, it is considered to be within the acceptable experimental variation.

in vitro [3] = details: human, plasma, pH 7.4
Protocol: as §1, §2, §3

in vitro [4] = details: mouse, plasma
in vitro [5] = details: human, plasma
in vitro [6] = details: rat, plasma, Plasma protein binding (% Unbound) Rat
[7] = pH 7.4, Mouse plasma t1/2 (EDTA), BTCs, EDTA anticoagulant
[8] = pH 7.4, Mouse plasma t1/2 (Herparin), BTCs, heparin anticoagulant

| Structure (SMILES) | half-life at 2 μM [1, 7] [h] | half-life at 2 μM [1, 8] [h] | % Parent remaining after incubation with CatB, 0 h (Cathepsin B) [%] | % Parent remaining after incubation with CatB, 1 h (Cathepsin B) [%] | % Parent remaining after incubation with CatB, 2 h (Cathepsin B) [%] | % Parent remaining after incubation with CatB, 4 h (Cathepsin B) [%] | % Parent remaining after incubation with CatB, 6 h (Cathepsin B) [%] | % Parent remaining after incubation with CatB, 24 h (Cathepsin B) [%] | half-life at 40 μM (Cathepsin B) [h] | C0 (in vivo) [ng/mL] | Vd (in vivo) [L/kg] | clearance (in vivo) [mL/min/kg] | half-life (in vivo) [h] | half-life at 2 μM (in vitro [2]) [h] | half-life at 2 μM (in vitro [3]) [h] | fraction unbound (in vitro [4]) | fold increase in half-life vs Cit-Val ([1]; mouse, pH 7.4) [fold] | half-life at 2 μM ([1]; mouse, pH 7.4) [h] | % Parent remaining after incubation with CatB, T = 1 h (Cathepsin B) [%] | % Parent remaining after incubation with CatB, T = 4 h (Cathepsin B) [%] | other results |
| --- | --- | --- | --- | --- | --- | --- | --- | --- | --- | --- | --- | --- | --- | --- | --- | --- | --- | --- | --- | --- | --- |
| CC[C@H](C)[C@@H]([C@@H](CC(=O)N1CCC[C@H]1[C@H](OC)[C@@H](C)C(=O)N[C@H](C)[C@@H](O)c1ccccc1)OC)N(C)C(=O)[C@@H](NC(=O)[C@H](C(C)C)N(C)C(=O)OCc1ccc(NC(=O)[C@H](CCCNC(N)=O)NC(=O)[C@@H](NC(=O)[C@H](CCC(=O)O)NC(=O)Cn2cc(CCC(=O)NCCC(=O)N(C)CC(=O)N(C)CC(=O)N(C)CC(=O)N(C)CC(=O)N(C)CC(=O)N(C)CC(=O)N(C)CC(=O)N(C)CC(=O)N(C)CC(=O)N(C)CC(=O)N[C@@H](C)C(=O)N[C@H]3CN(C)Cc4cc5cc(c4)CN(C)C[C@@H](C(N)=O)NC(=O)[C@H](C(C)(C)C)NC(=O)[C@H](CC(=O)O)NC(=O)[C@H](Cc4ccc(O)cc4)NC(=O)[C@H](Cc4ccccc4)NC(=O)[C@H](CC(=O)O)NC(=O)[C@H](CCC(=O)O)NC(=O)[C@H](CSC5)NC(=O)[C@@H](C)NC(=O)[C@H](Cc4cccc5ccccc45)NC(=O)[C@H](CCC(=O)O)NC(=O)[C@H](CC(N)=O)NC(=O)[C@@H](C)NC3=O)nn2)C(C)C)cc1)C(C)C [BCY10980, MMAE-PAB-(Cit-Val-Glu)-BCY3900] | > 57.8 | > 57.8 | 100 | 0 | 0 | 0 | 0 | 0 | < 0.2 | 40200 | 0.2 | 4.8 | 0.64 | > 57.8 | 40 | 0.187 | – | – | – | – | – |
| CC[C@H](C)[C@@H]([C@@H](CC(=O)N1CCC[C@H]1[C@H](OC)[C@@H](C)C(=O)N[C@H](C)[C@@H](O)c1ccccc1)OC)N(C)C(=O)[C@@H](NC(=O)[C@H](C(C)C)N(C)C(=O)OCc1ccc(NC(=O)[C@H](CCN)NC(=O)[C@H](Cc2cccc3ccccc23)NC(=O)[C@H](CCC(=O)O)NC(=O)Cn2cc(CCC(=O)NCCC(=O)N(C)CC(=O)N(C)CC(=O)N(C)CC(=O)N(C)CC(=O)N(C)CC(=O)N(C)CC(=O)N(C)CC(=O)N(C)CC(=O)N(C)CC(=O)N(C)CC(=O)N[C@@H](C)C(=O)N[C@H]3CN(C)Cc4cc5cc(c4)CN(C)C[C@@H](C(N)=O)NC(=O)[C@H](C(C)(C)C)NC(=O)[C@H](CC(=O)O)NC(=O)[C@H](Cc4ccc(O)cc4)NC(=O)[C@H](Cc4ccccc4)NC(=O)[C@H](CC(=O)O)NC(=O)[C@H](CCC(=O)O)NC(=O)[C@H](CSC5)NC(=O)[C@@H](C)NC(=O)[C@H](Cc4cccc5ccccc45)NC(=O)[C@H](CCC(=O)O)NC(=O)[C@H](CC(N)=O)NC(=O)[C@@H](C)NC3=O)nn2)cc1)C(C)C [BCY10985, MMAE-PAB-(Dab-1Nal-Glu)-BCY3900] | > 57.8 | > 57.8 | 100 | 103.62 | 94.8 | 107 | 92.2 | 86.82 | > 57.8 | 26400 | 0.18 | 1 | 2.48 | > 57.8 | > 57.8 | 0.048 | – | – | – | – | fraction unbound (in vitro [5]): 0.234 |
| CC[C@H](C)[C@@H]([C@@H](CC(=O)N1CCC[C@H]1[C@H](OC)[C@@H](C)C(=O)N[C@H](C)[C@@H](O)c1ccccc1)OC)N(C)C(=O)[C@@H](NC(=O)[C@H](C(C)C)N(C)C(=O)OCc1ccc(NC(=O)[C@H](CCN)NC(=O)C2(NC(=O)[C@H](CCC(=O)O)NC(=O)Cn3cc(CCC(=O)NCCC(=O)N(C)CC(=O)N(C)CC(=O)N(C)CC(=O)N(C)CC(=O)N(C)CC(=O)N(C)CC(=O)N(C)CC(=O)N(C)CC(=O)N(C)CC(=O)N(C)CC(=O)N[C@@H](C)C(=O)N[C@H]4CN(C)Cc5cc6cc(c5)CN(C)C[C@@H](C(N)=O)NC(=O)[C@H](C(C)(C)C)NC(=O)[C@H](CC(=O)O)NC(=O)[C@H](Cc5ccc(O)cc5)NC(=O)[C@H](Cc5ccccc5)NC(=O)[C@H](CC(=O)O)NC(=O)[C@H](CCC(=O)O)NC(=O)[C@H](CSC6)NC(=O)[C@@H](C)NC(=O)[C@H](Cc5cccc6ccccc56)NC(=O)[C@H](CCC(=O)O)NC(=O)[C@H](CC(N)=O)NC(=O)[C@@H](C)NC4=O)nn3)CCC2)cc1)C(C)C [BCY10988, MMAE-PAB-(Dab-cBu-Glu)-BCY3900] | > 57.8 | – | 100 | 109.88 | 119 | 110 | 105 | 111 | > 57.8 | – | – | – | – | – | – | – | – | – | – | – | – |
| CCn1cc(C(=O)O)c(=O)c2cc(F)c(N3CCN(C(=O)OCc4ccc(NC(=O)[C@H](CN)NC(=O)[C@@H](NC(=O)[C@H](CCC(=O)O)NC(=O)CCCC(=O)N(C)C)C(C)C)cc4)CC3)cc21 [BCY10297] | – | – | – | – | – | – | – | – | – | – | – | – | – | – | – | – | 19.3 | 15.5 | 75 | 15 | % Parent remaining after incubation with CatB, T = 24 h (Cathepsin B): 0% |
| CC[C@H](C)[C@@H]([C@@H](CC(=O)N1CCC[C@H]1[C@H](OC)[C@@H](C)C(=O)N[C@H](C)[C@@H](O)c1ccccc1)OC)N(C)C(=O)[C@@H](NC(=O)[C@H](C(C)C)N(C)C(=O)OCc1ccc(NC(=O)[C@H](CCN)NC(=O)[C@H](Cc2ccc3ccccc3c2)NC(=O)[C@H](CCC(=O)O)NC(=O)Cn2cc(CCC(=O)NCCC(=O)N(C)CC(=O)N(C)CC(=O)N(C)CC(=O)N(C)CC(=O)N(C)CC(=O)N(C)CC(=O)N(C)CC(=O)N(C)CC(=O)N(C)CC(=O)N(C)CC(=O)N[C@@H](C)C(=O)N[C@H]3CN(C)Cc4cc5cc(c4)CN(C)C[C@@H](C(N)=O)NC(=O)[C@H](C(C)(C)C)NC(=O)[C@H](CC(=O)O)NC(=O)[C@H](Cc4ccc(O)cc4)NC(=O)[C@H](Cc4ccccc4)NC(=O)[C@H](CC(=O)O)NC(=O)[C@H](CCC(=O)O)NC(=O)[C@H](CSC5)NC(=O)[C@@H](C)NC(=O)[C@H](Cc4cccc5ccccc45)NC(=O)[C@H](CCC(=O)O)NC(=O)[C@H](CC(N)=O)NC(=O)[C@@H](C)NC3=O)nn2)cc1)C(C)C [BCY10986, MMAE-PAB-(Dab-2Nal-Glu)-BCY3900] | 50.1 | – | 100 | 9.7346 | 0 | 0 | 0 | 0 | 0.3 | – | – | – | – | – | – | 0.071 | – | – | – | – | fraction unbound (in vitro [6]): 0.115 |
| CCn1cc(C(=O)O)c(=O)c2cc(F)c(N3CCN(C(=O)OCc4ccc(NC(=O)[C@H](CCN)NC(=O)[C@@H](NC(=O)CCCC(=O)N(C)C)C(C)C)cc4)CC3)cc21 [BCY9474] | – | – | – | – | – | – | – | – | – | – | – | – | – | – | – | – | 10.8 | 4.3 | 0.3 | 0 | % Parent remaining after incubation with CatB, T = 24 h (Cathepsin B): 0% |
